Key:
[1] = Solubilities of o,o'-bridged oligophenylenes at 21° C. in laser solvents; type: physicochemical; conditions: comparison in laser solvents
Method: SOLUBILITIES OF o,o'-BRIDGED OLIGOPHENYLENES AT 21° C.

[2] = Fluorescence emission spectrum (Perkin-Elmer MPF-44A); type: physicochemical; conditions: for Fluorescence peak 1, intensity / Fluorescence peak 1, wavelength / Fluorescence peak 2, intensity / Fluorescence peak 2, wavelength / Fluorescence emission peak 1, intensity / Fluorescence emission peak 1, wavelength / Fluorescence emission peak 2, intensity / Fluorescence emission peak 2, wavelength: slits 2 nm; for Fluorescence emission peak 1, intensity / Fluorescence emission peak 1, wavelength / Fluorescence emission peak 2, intensity / Fluorescence emission peak 2, wavelength: excitation 265 nm
From the text: (§1) The fluorescence emission spectrum for the dye 9,9-dipropylfluorene as illustrated in FIG. 1 was detected on a Perkin-Elmer MPF-44A, the slits were set at 2 nm and the excitation light was at 265 nm. The Fluorescence Quantum Efficiency (FQE) was about the same as that of fluorene - 55%; and the fluorescence emission peaks at 306 nm(intensity 86) and 316 nm(intensity 67) were also similar to those of fluorene [the fluorescence emission spectrum for fluorene as illustrated in FIG. 5 was also detected on a Perkin-Elmer MPF-44A, the slits were set at 2 nm and the excitation light was at 265 nm and the fluorescence emission peaks for fluorene are at 303 nm(intensity 93) and 311 nm(intensity 73)].
This dye had two fluorescence peaks of almost equal intensity at 360 nm(intensity 33) and 378 nm(intensity 28) as illustrated in FIG. 2. […] The fluorescence emission spectrum of the dye 9,9,9',9'-tetrapropyl-2,2'-bifluorene was detected on a Perkin-Elmer MPF-44A, the slits were set at 2 nm and the excitation light was at 331 nm.
(§2) This dye had fluorescence peaks at 324 nm(intensity 90) and 338 nm(intensity 76) and a reported fluorescence quantum yield of 100% in cyclohexane as illustrated in FIG. 3. […] The fluorescence emission spectrum for the dye 3-phenyldibenzofuran as illustrated in FIG. 3 was detected on a Perkin-Elmer MPF-44A, the slits were set at 2 nm and the excitation light was at 301 nm.
The dye, 3,3'-bi(dibenzofuran), was prepared in accordance with the process disclosed in H. O. Wirth, G. Waese and W. Kern: Synthese Und Eigenschaften Von: Oxydo-p-oligophenylenen. Makromol. Chem. 86: 139(1965) which is incorporated herein in its entirety by reference, and was purified by extraction from Brockmann Activity I alumina with chloroform in an Ace-Kauffman column to give a white solid, mp 249.5°-250.5° C. (lit.mp 252.5° C.). This dye had two fluorescence peaks of almost equal intensity at 353 nm(intensity 47) and 369 nm(intensity 30) in cyclohexane as illustrated in FIG. 4.

[3] = cyclohexane; cited from earlier work
[4] = Fluorescence quantum efficiency / quantum yield; type: physicochemical
From the text: as §1, §2

[5] = Violet fluorescence in alcohols; type: physicochemical
Method: The dye, 9,9'-diethyl-2,2'-bicarbazole, was prepared from the above intermediate as follows. To a mixture of 1.10 g (4 mMol) of 2-bromo-9-ethylcarbazole and 0.096 g of cut magnesium ribbon in 4 ml of refluxing ether was added 50 microliters of 1,2-dibromoethane. Refluxing was continued for 18 hrs. The solution was cooled and 386 microliters (0.455 g) of cis-1,4-dichloro-2-butene was added. As the solution was returned to reflux, a precipate appeared. After three hours the mixture was filtered. The solid was recrystallized from 2-methoxyethanol with a hot filtration to give 0.124 g (12% of theory) of product, mp 239°-40° C.

c1ccc2c(c1)oc1cc(-c3ccc4c(c3)oc3ccccc34)ccc12 [3,3'-bi(dibenzofuran)]
Solubility compared with another dye (words) [1]: greater than that of 2,2'-bifluorene | Fluorescence emission spectrum compared with dye of Example 2 [2]: almost superimposable on that of the dye discussed in Example 2 | Fluorescence peak 1, intensity ([2]; cyclohexane, excitation 323 nm): 47 | Fluorescence peak 1, wavelength ([2]; cyclohexane, excitation 323 nm): 353 nm | Fluorescence peak 2, intensity ([2]; cyclohexane, excitation 323 nm): 30 | Fluorescence peak 2, wavelength ([2]; cyclohexane, excitation 323 nm): 369 nm

c1ccc(-c2ccc3c(c2)oc2ccccc23)cc1 [3-phenyldibenzofuran]
Fluorescence quantum yield (reported) [3]: 100% | Solubility compared with another dye (words) [1]: much greater than that of p-terphenyl | Solubility compared with another dye (words) ([1]; listed as 3phenyldibenzofuran): much more soluble in methanol, 50% ethanol, 95% ethanol and absolute | Fluorescence peak 1, intensity ([2]; cyclohexane, excitation 301 nm): 90 | Fluorescence peak 1, wavelength ([2]; cyclohexane, excitation 301 nm): 324 nm | Fluorescence peak 2, intensity ([2]; cyclohexane, excitation 301 nm): 76 | Fluorescence peak 2, wavelength ([2]; cyclohexane, excitation 301 nm): 338 nm | FQE in methanol compared with cyclohexane [4]: the same in methanol as in cyclohexane

CCn1c2ccccc2c2ccc(-c3ccc4c5ccccc5n(CC)c4c3)cc21 [9,9'-diethyl-2,2'-bicarbazole]
Violet fluorescence in alcohols compared with compounds of Examples 2 and 4 [5]: brighter violet fluorescence in alcohols than the compounds of Examples 2 and 4

CCCC1(CCC)c2ccccc2-c2ccc(-c3ccc4c(c3)C(CCC)(CCC)c3ccccc3-4)cc21 [9,9,9',9'-tetrapropyl-2,2'-bifluorene]
Solubility compared with another dye (words) [1]: more soluble than 2,2'-bifluorene in solvents | Fluorescence peak 1, intensity ([2]; excitation 331 nm): 33 | Fluorescence peak 1, wavelength ([2]; excitation 331 nm): 360 nm | Fluorescence peak 2, intensity ([2]; excitation 331 nm): 28 | Fluorescence peak 2, wavelength ([2]; excitation 331 nm): 378 nm

CCCC1(CCC)c2ccccc2-c2ccccc21 [9,9-dipropylfluorene]
Fluorescence emission peak 1, intensity [2]: 86 | Fluorescence emission peak 1, wavelength [2]: 306 nm | Fluorescence emission peak 2, intensity [2]: 67 | Fluorescence emission peak 2, wavelength [2]: 316 nm

c1ccc2c(c1)Cc1ccccc1-2 [fluorene, reference compound]
Fluorescence emission peak 1, intensity [2]: 93 | Fluorescence emission peak 1, wavelength [2]: 303 nm | Fluorescence emission peak 2, intensity [2]: 73 | Fluorescence emission peak 2, wavelength [2]: 311 nm
